Test results reported in ChEMBL document CHEMBL5137116, “Discovery of Cyclic Diarylheptanoids as Inhibitors against Influenza A Virus from the Roots of Casuarina equisetifolia” (J Nat Prod, 2022).

Tests used:
[1] = tested on: Influenza A virus; assay: Antiviral activity against Influenza A virus A/WSN/33(H1N1) infected in HEK293T cells assessed as inhibition of viral replication at 50 uM by Gaussia luciferase assay; type: functional; details: HEK-293T
[2] = Selectivity index, ratio of CC50 for cytotoxicity against dog MDCK cells to IC50 for antiviral activity against Influenza A virus A/WSN/33(H1N1) infected in HEK293T cells; type: toxicity, cell-based; details: read-out: Selectivity Index
[3] = tested on: Influenza A virus; assay: Antiviral activity against Influenza A virus A/WSN/33(H1N1) infected in HEK293T cells by Gaussia luciferase assay; type: functional, organism-based; details: HEK-293T
[4] = Cytotoxicity against dog MDCK cells by MTT assay; type: toxicity, cell-based, Canis lupus familiaris

In the case of O=C1/C=C/CCc2ccc(O)c(c2)-c2cc(ccc2O)C[C@H]1O, the inhibition at 50 µM [1] is reported as 60%, the selectivity ratio [2] is reported as > 12 and the IC50 [3] is reported as 8.64 µM. The CC50 at 48 h [4] was > 100 µM.
